According to patent US6531471B2, “Morpholinone and morpholine derivatives and uses thereof” (Synaptic Pharmaceutical Corporation, priority 1998, dated 2003):
Counter-ions that a name gives are not always drawn.

Key:
human α1b receptor = biological target: T1, human α1b receptor (Homo sapiens, UniProt P35368); assay: Radioligand binding assay at cloned human α1b adrenergic receptor; conditions: [3H]prazosin 0.5 nM, membrane preparations of transfected LM(tk−) cells, read-out: hα1b Ki
T1 construct: host or cells: LM(tk−) cells, membrane preparation
T1 sequence (P35368 1-520): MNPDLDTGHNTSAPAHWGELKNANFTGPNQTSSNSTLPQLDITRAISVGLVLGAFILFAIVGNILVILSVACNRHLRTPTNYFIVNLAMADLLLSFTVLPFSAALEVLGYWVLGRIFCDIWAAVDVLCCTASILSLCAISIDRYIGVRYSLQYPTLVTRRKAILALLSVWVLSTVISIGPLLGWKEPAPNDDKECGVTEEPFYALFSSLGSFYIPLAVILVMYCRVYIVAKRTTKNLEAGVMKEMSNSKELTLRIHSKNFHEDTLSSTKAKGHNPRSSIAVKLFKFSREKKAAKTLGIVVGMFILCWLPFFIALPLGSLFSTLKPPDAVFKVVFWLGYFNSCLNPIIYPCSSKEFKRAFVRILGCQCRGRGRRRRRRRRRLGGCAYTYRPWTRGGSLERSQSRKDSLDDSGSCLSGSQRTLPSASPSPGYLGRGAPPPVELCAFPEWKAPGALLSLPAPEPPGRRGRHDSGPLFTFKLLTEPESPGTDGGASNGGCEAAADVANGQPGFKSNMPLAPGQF
Protocol: (§1) These cell lines were prepared by transfecting the cloned cDNA or cloned genomic DNA or constructs containing both genomic DNA and cDNA encoding the human α-adrenergic receptors as follows:
The construct involved ligating the full-length containing EcoRI brainstem cDNA fragment from λ ZapII into the expression vector. Stable cell lines were selected as described above.
(§2) Radioligand Binding Assays for α1 receptors: Transfected cells from culture flasks were scraped into 5 ml of 5 mM Tris-HCl, 5 mM EDTA, pH 7.5, and lysed by sonication. The cell lysates were centrifuged at 1000 rpm for 5 min at 4° C., and the supernatant was centrifuged at 30,000×g for 20 min at 4° C. The pellet was suspended in 50 mM Tris-HCl, 1 mM MgCl2, and 0.1% ascorbic acid at pH 7.5. Binding of the α1 antagonist [^3H]prazosin (0.5 nM, specific activity 76.2 Ci/mmol) to membrane preparations of LM(tk−) cells was done in a final volume of 0.25 ml and incubated at 37° C. for 20 min. Nonspecific binding was determined in the presence of […] phentolamine. The reaction was stopped by filtration through GF/B filters using a cell harvester.

human α1a receptor = biological target: T2, human α1a receptor (Homo sapiens, UniProt P35348); assay: Radioligand binding assay at cloned human α1a adrenergic receptor; conditions: [3H]prazosin 0.5 nM, membrane preparations of transfected LM(tk−) cells, read-out: hα1a Ki
T2 construct: host or cells: LM(tk−) cells, membrane preparation
T2 sequence (P35348 1-466): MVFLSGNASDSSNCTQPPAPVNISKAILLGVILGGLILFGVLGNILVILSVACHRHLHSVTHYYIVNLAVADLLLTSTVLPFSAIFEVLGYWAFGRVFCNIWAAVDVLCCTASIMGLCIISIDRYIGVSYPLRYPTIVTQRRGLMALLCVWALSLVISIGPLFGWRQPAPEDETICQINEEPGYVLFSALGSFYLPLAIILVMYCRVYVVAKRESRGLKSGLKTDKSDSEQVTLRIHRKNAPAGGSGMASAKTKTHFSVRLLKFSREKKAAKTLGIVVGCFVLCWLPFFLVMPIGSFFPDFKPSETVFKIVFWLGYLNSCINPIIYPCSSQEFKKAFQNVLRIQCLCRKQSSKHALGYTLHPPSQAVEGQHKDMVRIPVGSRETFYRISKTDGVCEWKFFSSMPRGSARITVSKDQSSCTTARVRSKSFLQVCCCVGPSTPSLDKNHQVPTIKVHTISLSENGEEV
Protocol: as §1
The construct involved ligating three partial overlapping fragments: a 5′ 0.6 kb HincII genomic clone, a central 1.8 EcoRI hippocampal cDNA clone, and a 3′ 0.6Kb PstI genomic clone. The hippocampal cDNA fragment overlaps with the 5′ and 3′ genomic clones so that the HincII and PstI sites at the 5′ and 3′ ends of the cDNA clone, respectively, were utilized for ligation. This full-length clone was cloned into the KpnI site of the expression vector, using the 5′ and 3′ KpnI sites of the fragment, derived from vector (i.e., pBluescript) and 3′-untranslated sequences, respectively. Stable cell lines were selected as described above.
as §2

human α1d receptor = biological target: T3, human α1d receptor (Homo sapiens, UniProt P25100); assay: Radioligand binding assay at cloned human α1d adrenergic receptor; conditions: [3H]prazosin 0.5 nM, membrane preparations of transfected LM(tk−) cells, read-out: hα1d Ki
T3 construct: host or cells: LM(tk−) cells, membrane preparation
T3 sequence (P25100 1-572): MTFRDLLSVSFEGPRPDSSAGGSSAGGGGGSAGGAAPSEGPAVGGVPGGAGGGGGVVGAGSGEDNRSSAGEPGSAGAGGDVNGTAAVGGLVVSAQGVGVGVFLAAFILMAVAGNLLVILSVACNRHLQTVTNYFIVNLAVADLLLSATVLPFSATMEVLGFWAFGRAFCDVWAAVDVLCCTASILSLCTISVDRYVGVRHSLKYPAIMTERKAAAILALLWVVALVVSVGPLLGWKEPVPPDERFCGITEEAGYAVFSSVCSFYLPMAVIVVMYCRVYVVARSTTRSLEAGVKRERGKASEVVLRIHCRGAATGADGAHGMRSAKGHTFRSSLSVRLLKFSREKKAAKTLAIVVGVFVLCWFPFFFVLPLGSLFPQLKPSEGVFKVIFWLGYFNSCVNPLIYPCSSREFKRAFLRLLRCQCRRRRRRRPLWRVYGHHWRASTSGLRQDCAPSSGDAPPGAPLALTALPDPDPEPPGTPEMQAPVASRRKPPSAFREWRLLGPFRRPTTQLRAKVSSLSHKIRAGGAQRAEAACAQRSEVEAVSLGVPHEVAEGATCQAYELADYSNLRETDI
Protocol: as §1
The cells were grown, in a controlled environment (37° C., 5% CO2), as monolayers in Dulbecco's modified Eagle's Medium (GIBCO, Grand Island, N.Y.) containing 25 mM glucose and supplemented with 10% bovine calf serum, 100 units/ml penicillin g, and 100 μg/ml streptomycin sulfate.
as §2

SMILES	melting point	Ki (human α1b receptor)	Ki (human α1a receptor)	Ki (human α1d receptor)
COc1ccc(F)cc1C1(c2ccccc2)CCN(CCCNC(=O)N2C(=O)COCC2c2ccc(F)c(F)c2)CC1 (single isomer, unassigned; (+)) (as salt: HCl) [Compound 1, (+)-3-(3,4-Difluorophenyl)-5-oxo-morpholine-4-carboxylic acid-{3-[4-(5-fluoro-2-methoxyphenyl)-4-phenyl-piperidin-1-yl}-propyl}-amide]	110 to 113 °C	–	–	–
COc1ccc(F)cc1C1(c2ccccc2)CCN(CCCNC(=O)N2C(=O)COCC2c2ccc(F)c(F)c2)CC1 (single isomer, unassigned; (+)) [Compound 1, (+)-3-(3,4-Difluorophenyl)-5-oxo-morpholine-4-carboxylic acid-{3-[4-(5-fluoro-2-methoxyphenyl)-4-phenyl-piperidin-1-yl}-propyl}-amide]	–	244 nM	1.6 nM	307 nM
CC1OCC(=O)N(C(=O)NCCCN2CCC(C#N)(c3ccccc3)CC2)C1c1ccc(F)c(F)c1 (single isomer, unassigned; (+)) [Compound 14]	191 to 194 °C	1460 nM	2.6 nM	4200 nM
NC(=O)c1ccccc1N1CCN(CCCNC(=O)N2C(=O)COCC2c2ccc(F)c(F)c2)CC1 (centres unmarked) [Compound 4, 3-(3,4-Difluoro-phenyl)-5-oxo-morpholine-4-carboxylic acid-{3-[4-(2-carboxamido)-phenyl-piperiazin-1-yl]-propyl}-amide]	–	3630 nM	32 nM	3160 nM
N#CC1(c2ccccc2)CCC(NCCNC(=O)N2C(=O)COCC2c2ccc(F)c(F)c2)CC1 (centres unmarked) [Compound 7]	–	246 nM	12.6 nM	204 nM
CC1(C)OCC(=O)N(C(=O)NCCCN2CCC(c3ccccn3)CC2)C1c1ccc(F)c(F)c1 (centres unmarked) [Compound 17, N-4-[3-{4-(2-pyridyl}piperidino)propyl]-3-(3,4-difluorophenyl)-2,2-dimethyl-5-oxo-4-morpholinecarboxamide hydrochloride]	–	464 nM	3.8 nM	580 nM
